Experimental findings from ChEMBL document CHEMBL1201862, “PubChem BioAssay data set” (2004) are described below.

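Dose response: 5 concentrations. Exposure: 48 h. Format: 96-well plates. Endpoint: linear interpolation; highest concentration if not reached. Abbreviation: GI50, concentration required for 50% inhibition of growth.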 Calls of active or inactive are those of the source. No stated cut-off is given here; in the data, active = GI50 up to about 1.1 µM and inactive = higher. Some results are limits rather than exact numbers.

Among the test systems are OVCAR-3; SK-MEL-28; SNB-19; HT-29; MOLT-4; LOX IMVI; NCI-H522; HL-60; UO-31; RXF 393; HCT-15; TK-10; A498; CCRF-CEM; SK-OV-3; OVCAR-4; UACC-257; SK-MEL-5; SF-295; NCI/ADR-RES.
Experiment in all cases: NCI anticancer screen, dose series, 48 h

Consider `Cc1cccc(NC(N)=S)c1`, for which the GI50 with OVCAR-3, with SK-MEL-28, in the assay on SNB-19, in the assay on HT-29, in the assay with MOLT-4 and in the assay on LOX IMVI was > 100 µM (inactive) in each case. The GI50 in the assay on NCI-H522 is > 100 µM (inactive); in the assay on HL-60, > 100 µM (inactive); in the assay on UO-31, > 100 µM (inactive); in the assay with RXF 393 it was > 100 µM (inactive); in the assay on HCT-15, over 100 µM; with TK-10, > 100 µM (inactive). The GI50 in the assay on A498, in the assay with CCRF-CEM, in the assay on SK-OV-3, with OVCAR-4 and in the assay on UACC-257 was > 100 µM (inactive) throughout.

Consider `COc1c2c(c3ccccc3c1O)C1C=CC2C1` (stereo not drawn), for which the GI50 in the assay with OVCAR-3 was 14.5 µM (inactive); in the assay with SK-MEL-28, 23.3 µM (inactive); in the assay on SNB-19 it was > 10 µM (inactive); in the assay on HT-29, 19.7 µM (inactive); in the assay on MOLT-4 it was 13.2 µM (inactive); in the assay on LOX IMVI, 4.48 µM (inactive). The GI50 is 14.9 µM (inactive) with NCI-H522; > 10 µM (inactive) in the assay with HL-60; 5.35 µM (inactive) in the assay with UO-31; 15.5 µM (inactive) in the assay with RXF 393; 10 µM with HCT-15; 22.3 µM (inactive) with TK-10. Besides, the GI50 is 4.72 µM (inactive) in the assay with CCRF-CEM, > 10 µM (inactive) in the assay with SK-OV-3, 15.4 µM (inactive) in the assay with OVCAR-4 and 5.77 µM (inactive) in the assay with SK-MEL-5.

On to `COC(=O)C1=C(C)N2CCSC2(C)C(C(=O)OC)C1c1cccc(Cl)c1` (stereo not drawn), for which the GI50 was 15.6 µM (inactive) in the assay on OVCAR-3; 19.1 µM (inactive) in the assay with SK-MEL-28; 16.6 µM (inactive) in the assay with SNB-19; 13.9 µM (inactive) with SF-295; 16.6 µM (inactive) with HT-29; 14.6 µM (inactive) in the assay with MOLT-4. In addition, the GI50 is 12.4 µM (inactive) in the assay on HL-60; 13.2 µM (inactive) with UO-31; 21.9 µM (inactive) in the assay with RXF 393; 41.9 µM (inactive) with TK-10; 23.1 µM (inactive) with CCRF-CEM; 49.7 µM (inactive) in the assay on OVCAR-4. Moreover, the GI50 with SK-MEL-5 is 14.5 µM (inactive); in the assay with UACC-257 it was 4.89 µM (inactive).

For `COc1ccc(-c2c3c(nc4[nH]c(=S)[nH]c(=S)c24)CCCC3)cc1OC`, the GI50 with OVCAR-3 is 52.1 µM (inactive); in the assay with SK-MEL-28, 24.2 µM (inactive); in the assay with SNB-19 it was 34.3 µM (inactive); in the assay with SF-295, 14.7 µM (inactive); in the assay on HT-29 it was 22.1 µM (inactive); with MOLT-4 it was 19.9 µM (inactive). The GI50 was 16.8 µM (inactive) in the assay with LOX IMVI; 24.7 µM (inactive) with HL-60; 21.5 µM (inactive) in the assay with NCI/ADR-RES; 14.6 µM (inactive) in the assay on UO-31; 11.9 µM (inactive) in the assay on RXF 393; 30.1 µM in the assay with HCT-15. In addition, the GI50 in the assay with TK-10 is 17.6 µM (inactive); in the assay on CCRF-CEM, 28.5 µM (inactive); in the assay on SK-OV-3, 44.4 µM (inactive); in the assay with OVCAR-4 it was 36.6 µM (inactive); with SK-MEL-5, 16.6 µM (inactive); in the assay with UACC-257, 32 µM (inactive).

`O=C(O)C(Br)Cc1ccc2c(c1)OCO2` (stereo not drawn): the GI50 in the assay on OVCAR-3 is > 100 µM (inactive); in the assay on SK-MEL-28, > 100 µM (inactive); in the assay on SNB-19, > 100 µM (inactive); in the assay on SF-295, 55.5 µM (inactive); in the assay on HT-29, > 100 µM (inactive); with MOLT-4, > 100 µM (inactive). Also, the GI50 was > 100 µM (inactive) in the assay on NCI-H522; > 100 µM (inactive) in the assay with HL-60; > 100 µM (inactive) in the assay on UO-31; 71.9 µM (inactive) in the assay with RXF 393; over 100 µM in the assay with HCT-15; 47.2 µM (inactive) in the assay with A498. The GI50 is > 100 µM (inactive) in the assay on CCRF-CEM; > 100 µM (inactive) with SK-OV-3; 88.7 µM (inactive) with OVCAR-4; > 100 µM (inactive) with SK-MEL-5; > 100 µM (inactive) in the assay with UACC-257.

As for `CC(=O)Nc1ccc(C(=O)N2N=C(C)/C(=C/c3ccc(O)cc3)C2=O)cc1`, the GI50 with OVCAR-3, in the assay with SK-MEL-28, in the assay with SNB-19, with SF-295, in the assay with HT-29 and in the assay with MOLT-4 was > 100 µM (inactive) in each case. In addition, the GI50 was > 100 µM (inactive) in the assay with LOX IMVI; > 100 µM (inactive) in the assay with NCI-H522; > 100 µM (inactive) in the assay with HL-60; > 100 µM (inactive) in the assay with UO-31; over 100 µM with HCT-15; > 100 µM (inactive) with TK-10. The GI50 in the assay with CCRF-CEM, in the assay on OVCAR-4, with SK-MEL-5 and with UACC-257 was > 100 µM (inactive) throughout.

For `BrC(/C=N/Nc1nnc(-c2ccccc2)c(-c2ccccc2)n1)C(Br)c1ccccc1` (stereo not drawn), the GI50 is 35.7 µM (inactive) with OVCAR-3; 37.3 µM (inactive) in the assay with SK-MEL-28; 64.4 µM (inactive) in the assay with SNB-19; 30.5 µM (inactive) in the assay with SF-295; 34 µM (inactive) with HT-29; 17.7 µM (inactive) in the assay with MOLT-4. For the same molecule, the GI50 in the assay with LOX IMVI was 41.5 µM (inactive); in the assay with NCI-H522, 14.5 µM (inactive); with HL-60, 22.4 µM (inactive); in the assay on UO-31, 19.7 µM (inactive); in the assay with RXF 393 it was 25.1 µM (inactive); with HCT-15 it was 28.7 µM. Moreover, the GI50 with TK-10 is 35.8 µM (inactive); in the assay with A498, 40.2 µM (inactive); in the assay with CCRF-CEM it was 24.9 µM (inactive); with SK-OV-3 it was 82.4 µM (inactive); in the assay on OVCAR-4, > 10 µM (inactive); in the assay with SK-MEL-5 it was 21.9 µM (inactive). In the assay with UACC-257, the GI50 is 14.1 µM (inactive).

Take `Cc1cc(O)nc(NN2C(Cl)C(=O)C2c2ccco2)n1` (stereo not drawn): the GI50 is 15.2 µM (inactive) in the assay on OVCAR-3; > 10 µM (inactive) in the assay on SK-MEL-28; 32 µM (inactive) in the assay with SNB-19; 34 µM (inactive) in the assay on HT-29; 21.8 µM (inactive) in the assay with MOLT-4; 23.3 µM (inactive) in the assay with LOX IMVI. Also, the GI50 with HL-60 is 15.3 µM (inactive); with UO-31, 23.1 µM (inactive); with RXF 393 it was 13 µM (inactive); in the assay with HCT-15, 31.6 µM; in the assay on TK-10 it was 61.2 µM (inactive); with CCRF-CEM it was 8.2 µM (inactive). Further, the GI50 was 19.7 µM (inactive) with OVCAR-4, 41.7 µM (inactive) in the assay with SK-MEL-5 and 48.9 µM (inactive) with UACC-257.

Take `O=C(O)c1c[nH]c2c(=O)[nH]cnc12`: the GI50 in the assay with OVCAR-3, in the assay on SK-MEL-28, in the assay on SNB-19, in the assay on SF-295, in the assay with HT-29 and in the assay on MOLT-4 was > 100 µM (inactive) in each case. For the same molecule, the GI50 in the assay on LOX IMVI was > 100 µM (inactive); with NCI-H522 it was > 100 µM (inactive); in the assay on HL-60, > 100 µM (inactive); in the assay on UO-31, > 100 µM (inactive); in the assay on RXF 393 it was > 100 µM (inactive); in the assay on HCT-15, over 100 µM. Moreover, the GI50 in the assay with TK-10, in the assay with CCRF-CEM, in the assay with SK-OV-3, in the assay on SK-MEL-5 and in the assay with UACC-257 was > 100 µM (inactive) each time.

`CCOC(=O)CN(Cn1cncn1)Cn1cncn1`: the GI50 was 19.6 µM (inactive) with OVCAR-3; 18.4 µM (inactive) with SK-MEL-28; 39.4 µM (inactive) in the assay on SF-295; 34.6 µM (inactive) in the assay with HT-29; 45.4 µM (inactive) in the assay with MOLT-4; 21 µM (inactive) in the assay on LOX IMVI. Further, the GI50 in the assay with HL-60 was 35.7 µM (inactive); with UO-31, > 100 µM (inactive); in the assay on RXF 393 it was 14.8 µM (inactive); with HCT-15 it was 22 µM; in the assay with TK-10, 50.7 µM (inactive); with CCRF-CEM it was 47 µM (inactive). The GI50 with SK-OV-3 is > 100 µM (inactive); in the assay on OVCAR-4, 46.8 µM (inactive); in the assay with SK-MEL-5 it was 24.2 µM (inactive); with UACC-257, 17.6 µM (inactive).

Consider `CC1CC2C3CCC4=CC(=O)C=CC4(C)C3(F)C(O)CC2(C)C1(O)C(=O)COP(=O)(O)O` (stereo not drawn), for which the GI50 in the assay on OVCAR-3 was > 100 µM (inactive); with SK-MEL-28, > 100 µM (inactive); in the assay with SNB-19, > 100 µM (inactive); with SF-295, > 100 µM (inactive); in the assay on HT-29, > 100 µM (inactive); in the assay on MOLT-4, > 62.7 µM (inactive). Besides, the GI50 is > 100 µM (inactive) in the assay with LOX IMVI; > 100 µM (inactive) in the assay on NCI-H522; > 100 µM (inactive) in the assay on HL-60; > 100 µM (inactive) with UO-31; > 100 µM (inactive) in the assay on RXF 393; over 100 µM in the assay with HCT-15. The GI50 with TK-10 is > 100 µM (inactive); with A498 it was > 100 µM (inactive); with CCRF-CEM, 0.144 µM (active); with OVCAR-4 it was > 100 µM (inactive); with SK-MEL-5, > 100 µM (inactive); in the assay with UACC-257, > 100 µM (inactive).

On to `CC1[C@@]2(O[C@@H]3C=C4C5CCC6Cc7nc8c(nc7C[C@@]6(C)C5C[C@H](O)[C@@]4(C)[C@]13O)CC1CCc3c(cc4c5c3C(O)C[C@H]5[C@@H](C)C3(O4)OC(C)(C)CC3O)[C@]1(C)C8)O[C@@](C)(CO)C[C@@H]2O` (stereo partly drawn), for which the GI50 is 1.32 µM (inactive) in the assay on OVCAR-3; 1.38 µM (inactive) in the assay on SNB-19; 0.06 µM (active) in the assay on SF-295; 0.402 µM (active) with HT-29; 0.23 µM (active) with LOX IMVI; 0.745 µM (active) in the assay on NCI-H522. Further, the GI50 in the assay on HL-60 was 0.191 µM (active); in the assay on UO-31, 1.39 µM (inactive); with RXF 393, 0.0418 µM (active); in the assay with HCT-15, 0.914 µM; in the assay with A498, 0.129 µM (active); with CCRF-CEM, 0.164 µM (active). Moreover, the values for the GI50 with SK-OV-3, with SK-MEL-5 and in the assay with UACC-257 were 0.187 µM (active), 0.303 µM (active) and 1.3 µM (inactive), respectively.
